According to PMC8400200, “Selective Moonlighting Cell-Penetrating Peptides” (Pharmaceutics, 2021):
Entries after “also recorded” stand apart in the source; their conditions may differ.

Legend:
yeast or mammalian cells = conditions: cited from earlier work
Excerpt: Additionally, three other peptides were designed to test the activation strategy (see Table 1). […] For this strategy we chose the peptidase neprilysin (also known as CD10), known to be overexpressed in some types of cancer tissues. The cleavage site sequence recognized by this protease has been well characte ...

[1] = system: HEK293T, HEK293T-NEP and HeLa cells; assay: Internalization assay, epifluorescence microscopy, compared or averaged over the three cell lines; assay type: cell-based; conditions: for internalization compared between peptides: medians of box plots (Figure 6A, 6B); for internalization compared between cell lines: medians of box plots (Figure 6A)
Procedure: (§1) This procedure was adapted from a previously reported protocol. Cells were incubated with TatNep, TatNepNoCPP or D-TatNepNoCPP peptides at a concentration of 10, 5 and 1 μM (see Table 1). All peptides were dissolved in a 1:4 DMSO-Water solution. Cells were incubated with each peptide for 30 min, then washed with PBS three times and fixed with 4% paraformaldehyde (Merck, Naucalpan de Juárez Edo. de Mexico, Mexico) for 30 min at room temperature. Afterwards, samples were washed with PBS three times and then incubated with 1 μg/mL of DAPI for 2 min at room temperature. For the images, 1000 cells were taken (3 replicates) by using the epifluorescent microscopy (Nikon ECLIPSE Ti-U). Due to a slight precipitation of the peptides, to avoid interference with the quantification, the 10% with the highest fluorescence intensity were considered outliers and were removed for all conditions. A total of 2700 cells remained for further analysis. Internalization analysis was performed by confocal microscopy. Cells were incubated with any of the three peptides at a concentration of 5 μM for 30 min (the fluorescence was strong and the precipitation reduced), then cell membranes were stained with the CellMask^TM Green Plasma Membrane Stain (ThermoFisher, Waltham, MA, USA) following specifications of the provider. Images were acquired with a Zeiss LSM800 microscope using the ZEN 2.6 (blue edition) software. All images were analyzed with the Fiji/ImageJ Software and are available at http://bis.ifc.unam.mx/ironbios/selmoonCPP/ (accessed on 21 July 2021).
For the mammalian cells images obtained from epifluorescence microscopy, a normality Shapiro–Wilk test was done for each individual condition (27 conditions).

[2] = system: HEK293T, HEK293T-NEP and HeLa cells; assay: Internalization analysis by confocal microscopy in mammalian cells; assay type: cell-based; conditions: 5 μM, 30 min, CellMask Green membrane stain
Procedure: as §1

[3] = system: S. cerevisiae MATa and MATα cells; assay: Internalization in yeast cells exposed separately, imaging flow cytometry; assay type: cell-based, Saccharomyces cerevisiae; conditions: for penetrating efficiency in MATa cells compared among the targeted CPPs: MATa exposed separately or mixed with MATα cells
Procedure: We adapted a previous protocol reported to analyze fluorescent single yeast cells. Briefly, cells were grown overnight and diluted to a final optical density measured at 600 nm of 1.0. A total of 116 μL of this cell dilution was mixed with 4 μL of a solution of penetrating peptide at 200 mM in a 1.5 mL plastic tube. This mixture was analyzed every 5 min for 60 min in a flux cytometer coupled to a multiphotonic microscope (Amnis ImageStream Mark II). In that equipment, 10,000 pictures were taken to record green (excitation 488 nm and emission 509 nm) and red (excitation 561 nm and emission 669 nm) fluorescence and the bright field. These images were then analyzed with the IDEAS software that is part of the Amnis equipment, to identify peptide internalization (red fluorescence). Two types of experiments were conducted; in one set, we exposed MATa and MATα cells separately to peptides α-NLS-C, NLS-α-CE and chimera (see Table 1 for a description of the peptide sequences). In another set of experiments, we exposed MATa and MATα cells mixed together to different penetrating peptides labeled with TAMRA; for this last experiment, the ribosomal protein RPL9A was fused to GFP in MATa cells, to facilitate their distinction from MATα cells. Events recorded in this way were further analyzed to discard cell debris and images that included clumps of cells. Images with a total area of 20–50 μm and an aspect ratio of 0.7 allowed us to identify events that include 1 or 2 cells; furthermore, images with less than 1500 arbitrary units of fluorescence were discarded. The data were plotted using ggplot2 from the R package. Please note that the reported experimental conditions were selected among several trials on the AMNIs equipment to identify the best conditions for these experiments.

MATa cells = conditions: cited from earlier work
Excerpt: In the targeted strategy, we noticed differences in penetrating efficiencies among the three targeted CPPs. […] This is observed when MATa are exposed to these peptides separately or mixed with MATα cells. […] However, if NLS-α-CE and chimera peptides would be disrupting the membrane potential of MATa cells as part of their toxic ...

[4] = system: S. cerevisiae MATa and MATα cells; assay: Internalization in yeast cells followed by confocal microscopy; assay type: cell-based, Saccharomyces cerevisiae; conditions: 50 μM peptide, OD600 0.4, cells in 0.5% agarose, pictures every 3 min for 1 h, two sets of experiments
Procedure: To confirm that the fluorescence detected using the AMNIS multiphotonic microscope was the fluorescence inside cells, we carried out confocal microscopy experiments (Zeiss LSM510 META) by adapting a previous report. For that end, yeast cells for each yeast haplotype were grown overnight for 14 h in YPD (1% yeast extract (USB Corp., Cleveland, OH, USA), 2% bacto peptone (Becton, Dickinson and Company, Franklin Lakes, NJ, USA) and 2% glucose (Merck, Naucalpan de Juárez Edo. De Mexico, Mexico). Cells were then centrifuged and resuspended in YPD. An OD600 of 0.4 was used for the confocal microscopy experiments, whereas for the cytometry experiments (above) a value of 1.0 was chosen. Yeast cells were immobilized using low melting point agarose (Agarose SFR VWR Life Technologies, Radnor PA, USA) at 0.5%. The peptide concentration used for these experiments was 50 μM. Prior to performing any observations, 3 cycles of sonications (sonicator Bransonic 32) for 3 min each were performed to dissolve potential peptide aggregates. A total of 12.5 μL of yeast inoculum, 1.5 μL of TAMRA-α-NLS-C solution and 1 μL of previously heated agarose were placed on a microscope slide. […] Images were analyzed using Fiji software and the fluorescence intensity recorded for each cell was divided by the area of the corresponding cell.

HEK293T cells = assay: Internalization assay, epifluorescence microscopy; assay type: cell-based; conditions: 10 μM, 30 min, fixed cells, 2700 cells (3 replicates)
Procedure: as §1, with “Internalization analysis was performed by confocal microscopy.” left out, “Images were acquired with a Zeiss LSM800 microscope using the ZEN 2.6 (blue edition) software.” left out, “2021). […]” for “2021).”

HEK293T-NEP cells = assay: Internalization assay, epifluorescence microscopy; assay type: cell-based; conditions: 10 μM, 30 min, fixed cells, 2700 cells (3 replicates)
Procedure: HEK293T cells were transfected as previously described with the plasmid PCSC-SP-PW-Nep (Addgene, Watertown, MA, USA), which contains the human neprilysin (MME) gene. This transfection was done with the use of the reagent polyethylenimine (PEI) according to the stable transfection procedures for adherent cells. The transfected HEK293T cells were cultured with DMEM containing 10% FBS and Zeocin 400 µg/mL (ThermoFisher, Waltham, MA, USA) to select stably transfected cells, which were recovered after the third day of transfection. […]
This procedure was adapted from a previously reported protocol. […] Due to a slight precipitation of the peptides, to avoid interference with the quantification, the 10% with the highest fluorescence intensity were considered outliers and were removed for all conditions. […] Cells were incubated with any of the three peptides at a concentration of 5 μM for 30 min (the fluorescence was strong and the precipitation reduced), then cell membranes were stained with the CellMask^TM Green Plasma Membrane Stain (ThermoFisher, Waltham, MA, USA) following specifications of the provider. […] All images were analyzed with the Fiji/ImageJ Software and are available at http://bis.ifc.unam.mx/ironbios/selmoonCPP/ (accessed on 21 July 2021). […]

[5] = epifluorescence, 10, 5 and 1 μM, 30 min

## 5(6)-carboxytetramethyl rhodamine [TAMRA]
Yeast or mammalian cells
  internalization of the free fluorophore: do not internalize

## D-(YGRKKRRQRRRFFGFLADDDDEE) [D-TatNepNoCPP, all-D isomer of TatNepNoCPP, negative control, N-terminal TAMRA]
[1]; [5]
  concentration dependence of internalization: does not present a concentration dependent internalization
  internalization compared between peptides: less internalized in all cell lines; also recorded: TatNepNoCPP > TatNep > D-TatNepNoCPP
[2]
  internalization by orthogonal projection: less internalization compared with the other two peptides in all three cell lines
  pattern of fluorescence: diffused layer covering the cells

## FRKWRRKPKKKRKVWWRKVKRRWHWLQLKPGQPMY [NLS-α-CE]
[3]
  penetrating efficiency in MATa cells compared among the targeted CPPs: penetrate less efficiently MATa cells expressing the targeted surface protein (Ste2p) than the α-NLS-C peptide
MATa cells
  toxicity to MATa cells: toxic to MATa cells

## KRRWRFVWMNPKKKRKVPPWPYLLWWHWLQLKPGQPMY [Chimera]
[3]
  penetrating efficiency in MATa cells compared among the targeted CPPs: penetrate less efficiently MATa cells expressing the targeted surface protein (Ste2p) than the α-NLS-C peptide
MATa cells
  toxicity to MATa cells: toxic to MATa cells

## RLWHWLQLKPGQPMYWRQPKSKRKVRR [α-NLS-C]
[3]; living cells exposed separately, OD600 1.0, TAMRA-labelled peptide (4 μL of 200 mM solution in 120 μL), read every 5 min for 60 min, Amnis ImageStream, 10,000 cells per condition, repeated at least 3 times
  selectivity of internalization (fluorescence intensity inside cells), MATa vs MATα: more selectivity towards MATα cells than NLS-α-CE and chimera peptides
[4]
  TAMRA fluorescence inside cells, MATa vs MATα: cells expressing the α-pheromone receptor STE2 (MATa cells) internalized more fluorescence than cells that did not express the receptor

## YGRKKRRQRRRFFG [TatNep, peptide produced by digestion of TatNepNoCPP by neprilysin, positive control for internalization, N-terminal TAMRA]
HEK293T cells
  ratio between medians of normalized fluorescence intensity, column peptide against row peptide D-TatNepNoCPP: 2.8
  ratio between medians of normalized fluorescence intensity, column peptide against row peptide TatNepNoCPP: 2.4
[1]; [5]
  internalization compared between cell lines: internalized in HEK293T and the over-expressing HEK293T-NEP cells with the same efficiency; also recorded: HeLa cells internalized more of this peptide at 10 μM than the other cell lines
  internalization compared between peptides: TatNepNoCPP > TatNep > D-TatNepNoCPP
[2]
  pattern of fluorescence: punctuated fluorescence

## YGRKKRRQRRRFFGFLADDDDEE [TatNepNoCPP]
HEK293T-NEP cells
  ratio between medians of normalized fluorescence intensity, column peptide against row peptide TatNep: 2.4
[1]; average of the ratios of medians per cell line, 10 μM
  internalization, times higher than TatNep: 3 times
[1]; [5]
  internalization compared between cell lines: HeLa > HEK293T > HEK293T-NEP
  internalization compared between peptides: best internalization with respect to the other peptides for any cell line; also recorded: TatNepNoCPP > TatNep > D-TatNepNoCPP
[2]
  pattern of fluorescence: diffused layer covering the cells
